Experimental data published in the NIST ThermoML archive (doi:10.1021/je800224k).

CCn1cc[n+](C)c1.F[P-](F)(F)(F)(F)F [1-ethyl-3-methylimidazolium hexafluorophosphate]
Settings | mass density [kg/m3]
312.8 K, 10000 kPa, Crystal, Bellows volumetry | 1562
312.8 K, 20000 kPa, Crystal, Bellows volumetry | 1565
312.8 K, 30000 kPa, Crystal, Bellows volumetry | 1569
312.8 K, 40000 kPa, Crystal, Bellows volumetry | 1572
312.8 K, 50000 kPa, Crystal, Bellows volumetry | 1576
312.8 K, 60000 kPa, Crystal, Bellows volumetry | 1579
312.8 K, 70000 kPa, Crystal, Bellows volumetry | 1582
312.8 K, 80000 kPa, Crystal, Bellows volumetry | 1585
312.8 K, 90000 kPa, Crystal, Bellows volumetry | 1588
312.8 K, 100000 kPa, Crystal, Bellows volumetry | 1591
312.8 K, 110000 kPa, Crystal, Bellows volumetry | 1594
312.8 K, 120000 kPa, Crystal, Bellows volumetry | 1597
312.8 K, 130000 kPa, Crystal, Bellows volumetry | 1600
312.8 K, 140000 kPa, Crystal, Bellows volumetry | 1603
312.8 K, 150000 kPa, Crystal, Bellows volumetry | 1606
312.8 K, 160000 kPa, Crystal, Bellows volumetry | 1609
312.8 K, 170000 kPa, Crystal, Bellows volumetry | 1612
312.8 K, 180000 kPa, Crystal, Bellows volumetry | 1615
312.8 K, 190000 kPa, Crystal, Bellows volumetry | 1617
312.8 K, 200000 kPa, Crystal, Bellows volumetry | 1620
332.7 K, 10000 kPa, Crystal, Bellows volumetry | 1546
332.7 K, 20000 kPa, Crystal, Bellows volumetry | 1550
332.7 K, 30000 kPa, Crystal, Bellows volumetry | 1554
332.7 K, 40000 kPa, Crystal, Bellows volumetry | 1557
332.7 K, 50000 kPa, Crystal, Bellows volumetry | 1561
332.7 K, 60000 kPa, Crystal, Bellows volumetry | 1564
332.7 K, 70000 kPa, Crystal, Bellows volumetry | 1567
332.7 K, 80000 kPa, Crystal, Bellows volumetry | 1571
332.7 K, 90000 kPa, Crystal, Bellows volumetry | 1574
332.7 K, 100000 kPa, Crystal, Bellows volumetry | 1577
332.7 K, 110000 kPa, Crystal, Bellows volumetry | 1581
332.7 K, 120000 kPa, Crystal, Bellows volumetry | 1584
332.7 K, 130000 kPa, Crystal, Bellows volumetry | 1587
332.7 K, 140000 kPa, Crystal, Bellows volumetry | 1590
332.7 K, 150000 kPa, Crystal, Bellows volumetry | 1593
332.7 K, 160000 kPa, Crystal, Bellows volumetry | 1596
332.7 K, 170000 kPa, Crystal, Bellows volumetry | 1599
332.7 K, 180000 kPa, Crystal, Bellows volumetry | 1602
332.7 K, 190000 kPa, Crystal, Bellows volumetry | 1605
332.7 K, 200000 kPa, Crystal, Bellows volumetry | 1608
352.7 K, 10000 kPa, Liquid, Bellows volumetry | 1428
352.7 K, 20000 kPa, Liquid, Bellows volumetry | 1434
352.7 K, 30000 kPa, Liquid, Bellows volumetry | 1440
352.7 K, 40000 kPa, Liquid, Bellows volumetry | 1446
352.7 K, 50000 kPa, Liquid, Bellows volumetry | 1451
352.7 K, 60000 kPa, Liquid, Bellows volumetry | 1456
352.7 K, 70000 kPa, Liquid, Bellows volumetry | 1461
352.7 K, 80000 kPa, Liquid, Bellows volumetry | 1466
352.7 K, 90000 kPa, Liquid, Bellows volumetry | 1471
352.7 K, 100000 kPa, Crystal, Bellows volumetry | 1562
352.7 K, 110000 kPa, Crystal, Bellows volumetry | 1566
352.7 K, 120000 kPa, Crystal, Bellows volumetry | 1570
352.7 K, 130000 kPa, Crystal, Bellows volumetry | 1573
352.7 K, 140000 kPa, Crystal, Bellows volumetry | 1576
352.7 K, 150000 kPa, Crystal, Bellows volumetry | 1580
352.7 K, 160000 kPa, Crystal, Bellows volumetry | 1583
352.7 K, 170000 kPa, Crystal, Bellows volumetry | 1586
352.7 K, 180000 kPa, Crystal, Bellows volumetry | 1589
352.7 K, 190000 kPa, Crystal, Bellows volumetry | 1592
352.7 K, 200000 kPa, Crystal, Bellows volumetry | 1595
353.15 K, 101.33 kPa, Liquid, Vibrating tube method | 1421.8
372.8 K, 10000 kPa, Liquid, Bellows volumetry | 1410
372.8 K, 20000 kPa, Liquid, Bellows volumetry | 1416
372.8 K, 30000 kPa, Liquid, Bellows volumetry | 1423
372.8 K, 40000 kPa, Liquid, Bellows volumetry | 1428
372.8 K, 50000 kPa, Liquid, Bellows volumetry | 1434
372.8 K, 60000 kPa, Liquid, Bellows volumetry | 1439
372.8 K, 70000 kPa, Liquid, Bellows volumetry | 1445
372.8 K, 80000 kPa, Liquid, Bellows volumetry | 1450
372.8 K, 90000 kPa, Liquid, Bellows volumetry | 1455
372.8 K, 100000 kPa, Liquid, Bellows volumetry | 1460
372.8 K, 110000 kPa, Liquid, Bellows volumetry | 1465
372.8 K, 120000 kPa, Liquid, Bellows volumetry | 1470
372.8 K, 130000 kPa, Liquid, Bellows volumetry | 1474
372.8 K, 140000 kPa, Liquid, Bellows volumetry | 1479
372.8 K, 150000 kPa, Liquid, Bellows volumetry | 1483
372.8 K, 160000 kPa, Liquid, Bellows volumetry | 1488
372.8 K, 170000 kPa, Liquid, Bellows volumetry | 1492
372.8 K, 180000 kPa, Liquid, Bellows volumetry | 1497
372.8 K, 190000 kPa, Liquid, Bellows volumetry | 1501
372.8 K, 200000 kPa, Liquid, Bellows volumetry | 1505
373.15 K, 101.33 kPa, Liquid, Vibrating tube method | 1404.9
392.9 K, 10000 kPa, Liquid, Bellows volumetry | 1393
392.9 K, 20000 kPa, Liquid, Bellows volumetry | 1400
392.9 K, 30000 kPa, Liquid, Bellows volumetry | 1406
392.9 K, 40000 kPa, Liquid, Bellows volumetry | 1412
392.9 K, 50000 kPa, Liquid, Bellows volumetry | 1418
392.9 K, 60000 kPa, Liquid, Bellows volumetry | 1424
392.9 K, 70000 kPa, Liquid, Bellows volumetry | 1429
392.9 K, 80000 kPa, Liquid, Bellows volumetry | 1435
392.9 K, 90000 kPa, Liquid, Bellows volumetry | 1440
392.9 K, 100000 kPa, Liquid, Bellows volumetry | 1445
392.9 K, 110000 kPa, Liquid, Bellows volumetry | 1450
392.9 K, 120000 kPa, Liquid, Bellows volumetry | 1455
392.9 K, 130000 kPa, Liquid, Bellows volumetry | 1460
392.9 K, 140000 kPa, Liquid, Bellows volumetry | 1464
392.9 K, 150000 kPa, Liquid, Bellows volumetry | 1469
392.9 K, 160000 kPa, Liquid, Bellows volumetry | 1474
392.9 K, 170000 kPa, Liquid, Bellows volumetry | 1478
392.9 K, 180000 kPa, Liquid, Bellows volumetry | 1483
392.9 K, 190000 kPa, Liquid, Bellows volumetry | 1487
392.9 K, 200000 kPa, Liquid, Bellows volumetry | 1491
412.9 K, 10000 kPa, Liquid, Bellows volumetry | 1377
412.9 K, 20000 kPa, Liquid, Bellows volumetry | 1384
412.9 K, 30000 kPa, Liquid, Bellows volumetry | 1390
412.9 K, 40000 kPa, Liquid, Bellows volumetry | 1397
412.9 K, 50000 kPa, Liquid, Bellows volumetry | 1403
412.9 K, 60000 kPa, Liquid, Bellows volumetry | 1408
412.9 K, 70000 kPa, Liquid, Bellows volumetry | 1414
412.9 K, 80000 kPa, Liquid, Bellows volumetry | 1420
412.9 K, 90000 kPa, Liquid, Bellows volumetry | 1425
412.9 K, 100000 kPa, Liquid, Bellows volumetry | 1431
412.9 K, 110000 kPa, Liquid, Bellows volumetry | 1436
412.9 K, 120000 kPa, Liquid, Bellows volumetry | 1441
412.9 K, 130000 kPa, Liquid, Bellows volumetry | 1446
412.9 K, 140000 kPa, Liquid, Bellows volumetry | 1451
412.9 K, 150000 kPa, Liquid, Bellows volumetry | 1456
412.9 K, 160000 kPa, Liquid, Bellows volumetry | 1460
412.9 K, 170000 kPa, Liquid, Bellows volumetry | 1465
412.9 K, 180000 kPa, Liquid, Bellows volumetry | 1469
412.9 K, 190000 kPa, Liquid, Bellows volumetry | 1474
412.9 K, 200000 kPa, Liquid, Bellows volumetry | 1478
432.6 K, 10000 kPa, Liquid, Bellows volumetry | 1360
432.6 K, 20000 kPa, Liquid, Bellows volumetry | 1367
432.6 K, 30000 kPa, Liquid, Bellows volumetry | 1374
432.6 K, 40000 kPa, Liquid, Bellows volumetry | 1381
432.6 K, 50000 kPa, Liquid, Bellows volumetry | 1387
432.6 K, 60000 kPa, Liquid, Bellows volumetry | 1393
432.6 K, 70000 kPa, Liquid, Bellows volumetry | 1399
432.6 K, 80000 kPa, Liquid, Bellows volumetry | 1405
432.6 K, 90000 kPa, Liquid, Bellows volumetry | 1411
432.6 K, 100000 kPa, Liquid, Bellows volumetry | 1417
432.6 K, 110000 kPa, Liquid, Bellows volumetry | 1422
432.6 K, 120000 kPa, Liquid, Bellows volumetry | 1427
432.6 K, 130000 kPa, Liquid, Bellows volumetry | 1432
432.6 K, 140000 kPa, Liquid, Bellows volumetry | 1437
432.6 K, 150000 kPa, Liquid, Bellows volumetry | 1442
432.6 K, 160000 kPa, Liquid, Bellows volumetry | 1447
432.6 K, 170000 kPa, Liquid, Bellows volumetry | 1451
432.6 K, 180000 kPa, Liquid, Bellows volumetry | 1456
432.6 K, 190000 kPa, Liquid, Bellows volumetry | 1461
432.6 K, 200000 kPa, Liquid, Bellows volumetry | 1465
452.5 K, 10000 kPa, Liquid, Bellows volumetry | 1344
452.5 K, 20000 kPa, Liquid, Bellows volumetry | 1351
452.5 K, 30000 kPa, Liquid, Bellows volumetry | 1359
452.5 K, 40000 kPa, Liquid, Bellows volumetry | 1366
452.5 K, 50000 kPa, Liquid, Bellows volumetry | 1372
452.5 K, 60000 kPa, Liquid, Bellows volumetry | 1379
452.5 K, 70000 kPa, Liquid, Bellows volumetry | 1385
452.5 K, 80000 kPa, Liquid, Bellows volumetry | 1391
452.5 K, 90000 kPa, Liquid, Bellows volumetry | 1397
452.5 K, 100000 kPa, Liquid, Bellows volumetry | 1402
452.5 K, 110000 kPa, Liquid, Bellows volumetry | 1408
452.5 K, 120000 kPa, Liquid, Bellows volumetry | 1414
452.5 K, 130000 kPa, Liquid, Bellows volumetry | 1419
452.5 K, 140000 kPa, Liquid, Bellows volumetry | 1423
452.5 K, 150000 kPa, Liquid, Bellows volumetry | 1429
452.5 K, 160000 kPa, Liquid, Bellows volumetry | 1434
452.5 K, 170000 kPa, Liquid, Bellows volumetry | 1439
452.5 K, 180000 kPa, Liquid, Bellows volumetry | 1444
452.5 K, 190000 kPa, Liquid, Bellows volumetry | 1448
452.5 K, 200000 kPa, Liquid, Bellows volumetry | 1453
472.4 K, 10000 kPa, Liquid, Bellows volumetry | 1327
472.4 K, 20000 kPa, Liquid, Bellows volumetry | 1336
472.4 K, 30000 kPa, Liquid, Bellows volumetry | 1344
472.4 K, 40000 kPa, Liquid, Bellows volumetry | 1351
472.4 K, 50000 kPa, Liquid, Bellows volumetry | 1358
472.4 K, 60000 kPa, Liquid, Bellows volumetry | 1364
472.4 K, 70000 kPa, Liquid, Bellows volumetry | 1371
472.4 K, 80000 kPa, Liquid, Bellows volumetry | 1377
472.4 K, 90000 kPa, Liquid, Bellows volumetry | 1383
472.4 K, 100000 kPa, Liquid, Bellows volumetry | 1389
472.4 K, 110000 kPa, Liquid, Bellows volumetry | 1395
472.4 K, 120000 kPa, Liquid, Bellows volumetry | 1400
472.4 K, 130000 kPa, Liquid, Bellows volumetry | 1405
472.4 K, 140000 kPa, Liquid, Bellows volumetry | 1411
472.4 K, 150000 kPa, Liquid, Bellows volumetry | 1416
472.4 K, 160000 kPa, Liquid, Bellows volumetry | 1421
472.4 K, 170000 kPa, Liquid, Bellows volumetry | 1426
472.4 K, 180000 kPa, Liquid, Bellows volumetry | 1431
472.4 K, 190000 kPa, Liquid, Bellows volumetry | 1436
472.4 K, 200000 kPa, Liquid, Bellows volumetry | 1440
